In patent publication US10717733B2, “Haloallylamine indole and azaindole derivative inhibitors of lysyl oxidases and uses thereof” (PHARMAXIS LTD., priority 2016, dated 2020):
Where a name gives a salt, the structure may show the parent alone.

Columns and labels:
Format in all cases: biochemical
[1] = molecular target: human recombinant SSAO/VAP-1 (Homo sapiens (Human), UniProt Q16853); experiment: Inhibition of human recombinant SSAO/VAP-1 amine oxidase activity; details: 30 min preincubation at 37° C., 600 μM benzylamine
In short: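 Purified SSAO/VAP-1 (residues 34-763, expressed in CHO Lec 8 cells; 0.25 μg/mL) preincubated 30 min at 37° C with compound in 0.1 M sodium phosphate pH 7.4. Reaction mix of 600 μM benzylamine, 120 μM Amplex Red and 1.5 U/mL HRP added; fluorescence (ex 565/em 590 nm) read every 2.5 min for 30 min; IC50 from kinetic slopes over 4-11 point curves.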

[2] = molecular target: Human LOXL2 (Homo sapiens (Human), UniProt Q9Y4K0); experiment: LOXL2 inhibition, peroxidase-coupled Amplex Red amine oxidase assay; details: 30 min preincubation at 37° C., putrescine substrate
In short: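 Enzyme in 1.2 M urea, 50 mM sodium borate pH 8.2 with 1 μM mofegiline and 0.5 mM pargyline, preincubated 30 min at 37° C with compound (11-point CRC). Putrescine at twice KM (10 mM for LOXL2) with Amplex Red/HRP; fluorescence (ex 565, em 590) read kinetically 30 min; IC50 from slopes.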

[3] = molecular target: Recombinant human MAO-B (Homo sapiens (Human), UniProt P27338); experiment: Inhibition of human recombinant MAO-B; details: benzylamine 100 μM
In short: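 Recombinant human MAO-B used as enzyme source (0.06 mg/mL, stated concentration). Run as for the human SSAO/VAP-1 assay, except benzylamine substrate at 100 μM.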

[4] = molecular target: Bovine LOX (Bos taurus (Bovine), UniProt P33072); experiment: LOX inhibition, peroxidase-coupled Amplex Red amine oxidase assay; details: 30 min preincubation at 37° C., putrescine substrate
In short: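 Bovine LOX in 1.2 M urea, 50 mM sodium borate pH 8.2 with 1 μM mofegiline and 0.5 mM pargyline; putrescine at twice KM (e.g. 20 mM for LOX) with Amplex Red/HRP. Fluorescence (ex 565/em 590 nm) read kinetically over 30 min at 37–45 °C; IC50 from slopes.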

human recombinant SSAO/VAP-1, sequence (Q16853 34-763): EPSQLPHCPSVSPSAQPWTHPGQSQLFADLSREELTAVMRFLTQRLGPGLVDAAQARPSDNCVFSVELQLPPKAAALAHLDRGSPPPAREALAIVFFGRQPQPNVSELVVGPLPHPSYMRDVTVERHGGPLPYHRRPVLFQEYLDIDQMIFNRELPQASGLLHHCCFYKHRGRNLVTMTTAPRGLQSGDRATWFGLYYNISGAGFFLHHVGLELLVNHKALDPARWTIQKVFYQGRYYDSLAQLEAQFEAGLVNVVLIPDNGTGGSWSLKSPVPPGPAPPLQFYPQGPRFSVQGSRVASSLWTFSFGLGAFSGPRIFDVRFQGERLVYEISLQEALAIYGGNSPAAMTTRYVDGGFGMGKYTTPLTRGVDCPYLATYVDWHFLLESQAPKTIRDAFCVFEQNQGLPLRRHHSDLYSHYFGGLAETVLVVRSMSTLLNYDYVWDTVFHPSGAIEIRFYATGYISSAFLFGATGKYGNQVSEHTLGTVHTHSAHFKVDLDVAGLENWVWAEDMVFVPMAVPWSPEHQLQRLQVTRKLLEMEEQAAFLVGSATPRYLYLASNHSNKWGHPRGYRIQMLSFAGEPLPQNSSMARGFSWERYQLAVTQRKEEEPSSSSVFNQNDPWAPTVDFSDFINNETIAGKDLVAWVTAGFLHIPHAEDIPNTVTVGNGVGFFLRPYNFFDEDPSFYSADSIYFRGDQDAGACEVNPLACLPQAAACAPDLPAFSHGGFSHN
Recombinant human MAO-B, sequence (P27338 whole entry): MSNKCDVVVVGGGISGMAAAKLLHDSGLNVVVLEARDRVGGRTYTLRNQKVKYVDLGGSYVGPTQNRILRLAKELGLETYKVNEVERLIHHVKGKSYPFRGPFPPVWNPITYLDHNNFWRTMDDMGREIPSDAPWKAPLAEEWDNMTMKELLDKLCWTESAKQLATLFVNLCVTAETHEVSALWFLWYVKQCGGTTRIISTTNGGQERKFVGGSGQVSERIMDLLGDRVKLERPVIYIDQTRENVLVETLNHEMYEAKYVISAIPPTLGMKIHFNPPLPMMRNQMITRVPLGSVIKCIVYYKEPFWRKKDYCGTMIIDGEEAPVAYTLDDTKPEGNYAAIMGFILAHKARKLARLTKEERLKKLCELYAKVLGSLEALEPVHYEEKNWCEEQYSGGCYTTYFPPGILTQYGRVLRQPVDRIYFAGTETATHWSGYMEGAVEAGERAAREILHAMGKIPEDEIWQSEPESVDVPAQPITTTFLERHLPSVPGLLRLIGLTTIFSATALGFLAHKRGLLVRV
Bovine LOX, sequence (P33072 170-418): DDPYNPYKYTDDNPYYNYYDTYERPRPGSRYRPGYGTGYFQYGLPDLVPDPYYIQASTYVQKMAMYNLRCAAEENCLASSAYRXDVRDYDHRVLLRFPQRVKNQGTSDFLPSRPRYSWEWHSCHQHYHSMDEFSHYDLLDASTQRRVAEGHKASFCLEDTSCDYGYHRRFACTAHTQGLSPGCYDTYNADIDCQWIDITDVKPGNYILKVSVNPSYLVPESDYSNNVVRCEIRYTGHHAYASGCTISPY
Human LOXL2, sequence (Q9Y4K0 26-774): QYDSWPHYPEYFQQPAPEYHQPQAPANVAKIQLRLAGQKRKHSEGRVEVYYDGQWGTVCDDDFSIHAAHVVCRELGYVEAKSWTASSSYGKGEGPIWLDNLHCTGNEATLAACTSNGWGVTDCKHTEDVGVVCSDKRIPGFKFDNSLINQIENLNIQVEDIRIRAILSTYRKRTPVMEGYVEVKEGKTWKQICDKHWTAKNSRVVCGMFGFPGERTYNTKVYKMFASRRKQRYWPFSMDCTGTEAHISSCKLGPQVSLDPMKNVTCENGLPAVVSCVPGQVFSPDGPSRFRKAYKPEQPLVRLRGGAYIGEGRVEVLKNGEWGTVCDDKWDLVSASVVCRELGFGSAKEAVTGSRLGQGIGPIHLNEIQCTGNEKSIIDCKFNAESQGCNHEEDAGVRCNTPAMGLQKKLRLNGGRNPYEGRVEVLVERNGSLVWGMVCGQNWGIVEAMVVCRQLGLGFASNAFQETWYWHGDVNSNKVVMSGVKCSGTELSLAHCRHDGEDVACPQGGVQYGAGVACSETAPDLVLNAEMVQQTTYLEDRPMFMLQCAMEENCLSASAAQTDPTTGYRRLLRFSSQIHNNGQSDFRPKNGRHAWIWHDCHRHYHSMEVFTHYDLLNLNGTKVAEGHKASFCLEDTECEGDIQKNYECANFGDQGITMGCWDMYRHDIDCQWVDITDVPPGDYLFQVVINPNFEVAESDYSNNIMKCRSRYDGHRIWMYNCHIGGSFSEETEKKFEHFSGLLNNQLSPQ

Row | SMILES | IC50 [1] | IC50 [2] | IC50 [3] | IC50 [4]
1 | Cc1ccc(S(=O)(=O)N(C)C)cc1-c1c(C)n(C/C(F)=C/CN)c2c(F)cc(Cl)cc12 [Compound 82, (Z)-3-(1-(4-amino-2-fluorobut-2-en-1-yl)-5-chloro-7-fluoro-2-methyl-1H-indol-3-yl)-N,N,4-trimethylbenzenesulfonamide] | > 3000 nM | < 300 nM | > 3000 nM | > 300 nM
2 | Cc1c(-c2ccccc2)c2cc(S(C)(=O)=O)ccc2n1C/C(F)=C/CN [Compound 87, (Z)-3-fluoro-4-(2-methyl-5-(methylsulfonyl)-3-phenyl-1H-indol-1-yl)but-2-en-1-amine] | > 3000 nM | < 300 nM | > 3000 nM | > 300 nM
3 | CCOC(=O)c1ccc2c(c1)c(-c1cccc(C(C)(C)C)c1)c(C)n2C/C(F)=C/CN [Compound 30, ethyl (Z)-1-(4-amino-2-fluorobut-2-en-1-yl)-3-(3-(tert-butyl)phenyl)-2-methyl-1H-indole-5-carboxylate] | > 3000 nM | < 300 nM | > 3000 nM | > 300 nM
4 | Cc1c(-c2cncc(S(=O)(=O)N(C)C)c2)c2cc(C(=O)O)ccc2n1C/C(F)=C/CN [Compound 40, (Z)-1-(4-amino-2-fluorobut-2-en-1-yl)-3-(5-(N,N-dimethylsulfamoyl)pyridin-3-yl)-2-methyl-1H-indole-5-carboxylic acid] | > 3000 nM | < 300 nM | > 3000 nM | > 300 nM
5 | Cc1c(-c2cccnc2)c2cc(Cl)ccc2n1C/C(F)=C/CN [Compound 77, (Z)-4-(5-chloro-2-methyl-3-(pyridin-3-yl)-1H-indol-1-yl)-3-fluorobut-2-en-1-amine] | > 3000 nM | < 300 nM | > 3000 nM | > 300 nM
6 | Cc1cc(-c2c(C)n(C/C(F)=C/CN)c3ccc(C(=O)N(C)C)cc23)cc(C)n1 [Compound 90, (Z)-1-(4-amino-2-fluorobut-2-en-1-yl)-3-(2,6-dimethylpyridin-4-yl)-N,N,2-trimethyl-1H-indole-5-carboxamide] | > 3000 nM | < 300 nM | > 3000 nM | > 300 nM
7 | Cc1c(-c2cccc(S(=O)(=O)N(C)C)c2)c2nc(N(C)C)ccc2n1C/C(F)=C/CN [Compound 105, (Z)-3-(1-(4-amino-2-fluorobut-2-en-1-yl)-5-(dimethylamino)-2-methyl-1H-pyrrolo[3,2-b]pyridin-3-yl)-N,N-dimethylbenzenesulfonamide Dihydrochloride] | > 3000 nM | < 300 nM | > 3000 nM | > 300 nM
8 | Cc1c(-c2cccc(S(=O)(=O)N(C)C)c2)c2nc(C(F)(F)F)ccc2n1C/C(F)=C/CN [Compound 110, (Z)-3-(1-(4-amino-2-fluorobut-2-en-1-yl)-2-methyl-5-(trifluoromethyl)-1H-pyrrolo[3,2-b]pyridin-3-yl)-N,N-dimethylbenzenesulfonamide] | > 3000 nM | < 300 nM | > 3000 nM | > 300 nM
9 | Cc1c(-c2cccc(S(=O)(=O)N(C)C)c2)c2cc(S(C)(=O)=O)ccc2n1C/C(F)=C/CN [Compound 97, (Z)-3-(1-(4-amino-2-fluorobut-2-en-1-yl)-2-methyl-5-(methylsulfonyl)-1H-indol-3-yl)-N,N-dimethylbenzenesulfonamide] | > 3000 nM | < 300 nM | > 3000 nM | > 300 nM
10 | Cc1c(-c2cccc(S(=O)(=O)N(C)C)c2)c2ccccc2n1C/C(F)=C/CN [Compound 2, (Z)-3-(1-(4-amino-2-fluorobut-2-en-1-yl)-2-methyl-1H-indol-3-yl)-N,N-dimethylbenzenesulfonamide] | > 3000 nM | < 300 nM | > 3000 nM | > 300 nM
11 | Cc1c(-c2c(C)n(C/C(F)=C/CN)c3ccc(C(=O)O)cc23)cccc1S(=O)(=O)N(C)C [Compound 13, (Z)-1-(4-amino-2-fluorobut-2-en-1-yl)-3-(3-(N,N-dimethylsulfamoyl)-2-methylphenyl)-2-methyl-1H-indole-5-carboxylic acid] | > 3000 nM | < 300 nM | > 3000 nM | > 300 nM
12 | COC(=O)c1ccc2c(-c3cccc(S(=O)(=O)N(C)C)c3)c(C)n(C/C(F)=C/CN)c2c1 [Compound 7, (Z)-methyl 1-(4-amino-2-fluorobut-2-en-1-yl)-3-(3-(N,N-dimethylsulfamoyl)phenyl)-2-methyl-1H-indole-6-carboxylate] | > 3000 nM | < 300 nM | > 3000 nM | > 300 nM
13 | CCOC(=O)c1ccc2c(c1)c(-c1cccc(Cl)c1)c(C)n2C/C(F)=C/CN [Compound 27, ethyl (Z)-1-(4-amino-2-fluorobut-2-en-1-yl)-3-(3-chlorophenyl)-2-methyl-1H-indole-5-carboxylate] | > 3000 nM | < 300 nM | > 3000 nM | > 300 nM
14 | Cc1c(-c2cccc(C(=O)N(C)C)c2)c2cc(C(=O)O)ccc2n1C/C(F)=C/CN [Compound 16, (Z)-1-(4-amino-2-fluorobut-2-en-1-yl)-3-(3-(dimethylcarbamoyl)phenyl)-2-methyl-1H-indole-5-carboxylic Acid Hydrochloride] | > 3000 nM | < 300 nM | > 3000 nM | > 300 nM
15 | Cc1c(-c2cncc(S(=O)(=O)N(C)C)c2)c2ccccc2n1C/C(F)=C/CN [Compound 63, (Z)-5-(1-(4-amino-2-fluorobut-2-en-1-yl)-2-methyl-1H-indol-3-yl)-N,N-dimethylpyridine-3-sulfonamide] | > 3000 nM | < 300 nM | > 3000 nM | > 300 nM
16 | CCOC(=O)c1ccc2c(c1)c(-c1cccc(S(C)(=O)=O)c1)c(C)n2C/C(F)=C/CN [Compound 17, (Z)-ethyl 1-(4-amino-2-fluorobut-2-en-1-yl)-2-methyl-3-(3-(methylsulfonyl)phenyl)-1H-indole-5-carboxylate] | > 3000 nM | < 300 nM | > 3000 nM | > 300 nM
17 | Cc1c(-c2ccccc2)c2cc(S(=O)(=O)N(C)C)ccc2n1C/C(F)=C/CN [Compound 86, (Z,)-1-(4-amino-2-fluorobut-2-en-1-yl)-N,N,2-trimethyl-3-phenyl-1H-indole-5-sulfonamide] | > 3000 nM | < 300 nM | > 3000 nM | > 300 nM
18 | Cc1c(-c2cccc(S(=O)(=O)N(C)C)c2)c2cc(NS(C)(=O)=O)ccc2n1C/C(F)=C/CN [Compound 104, (Z)-3-(1-(4-amino-2-fluorobut-2-en-1-yl)-2-methyl-5-(methylsulfonamido)-1H-indol-3-yl)-N,N-dimethylbenzenesulfonamide Hydrochloride] | > 3000 nM | < 300 nM | > 3000 nM | > 300 nM
19 | Cc1c(-c2ccncc2)c2cc(Cl)ccc2n1C/C(F)=C/CN [Compound 76, (Z)-4-(5-chloro-2-methyl-3-(pyridin-4-yl)-1H-indol-1-yl)-3-fluorobut-2-en-1-amine] | > 3000 nM | < 300 nM | > 3000 nM | > 300 nM
20 | Cc1c(-c2cncc(S(=O)(=O)N(C)C)c2)c2cc(Cl)cnc2n1C/C(F)=C/CN [Compound 73, (Z)-5-(1-(4-amino-2-fluorobut-2-en-1-yl)-5-chloro-2-methyl-1H-pyrrolo[2,3-b]pyridin-3-yl)-N,N-dimethylpyridine-3-sulfonamide] | > 3000 nM | < 300 nM | > 3000 nM | > 300 nM
21 | CCOC(=O)c1ccc2c(c1)c(-c1cccc(C(=O)N(C)C)c1)c(C)n2C/C(F)=C/CN [Compound 15, (Z)-ethyl 1-(4-amino-2-fluorobut-2-en-1-yl)-3-(3-(dimethylcarbamoyl)phenyl)-2-methyl-1H-indole-5-carboxylate Hydrochloride] | > 3000 nM | < 300 nM | > 3000 nM | > 300 nM
22 | Cc1cc(-c2c(C)n(C/C(F)=C/CN)c3ccc(NS(C)(=O)=O)cc23)cc(C)n1 [Compound 102, (Z)—N-(1-(4-amino-2-fluorobut-2-en-1-yl)-3-(2,6-dimethylpyridin-4-yl)-2-methyl-1H-indol-5-yl)methanesulfonamide Dihydrochloride] | > 3000 nM | < 300 nM | > 3000 nM | > 300 nM
23 | Cc1cc(-c2c(C)n(C/C(F)=C/CN)c3ccc(S(C)(=O)=O)cc23)cc(C)n1 [Compound 89, (Z)-4-(3-(2,6-dimethylpyridin-4-yl)-2-methyl-5-(methylsulfonyl)-1H-indol-1-yl)-3-fluorobut-2-en-1-amine] | > 3000 nM | < 300 nM | > 3000 nM | > 300 nM
24 | Cc1c(-c2cccc(S(=O)(=O)N(C)C)c2)c2cc(C(=O)O)c(F)cc2n1C/C(F)=C/CN [Compound 21, (Z)-1-(4-amino-2-fluorobut-2-en-1-yl)-3-(3-(N,N-dimethylsulfamoyl)phenyl)-6-fluoro-2-methyl-1H-indole-5-carboxylic acid] | > 3000 nM | < 300 nM | > 3000 nM | > 300 nM
